Experimental data reported in publication PMC8801435, “Legume Alternative Oxidase Isoforms Show Differential Sensitivity to Pyruvate Activation” (Frontiers in Plant Science, 2022).

Key:
Experiment in all cases: O2 consumption (Clark electrode), activation of AOX in inverted membrane vesicles
Assay type in all cases: biochemical
[1] = target: T1, GmAOX2A (Glycine max, UniProt Q41266); conditions: activator; 2.5 mM NADH, 5 mM DTT, 1 mM KCN, pH 7.0; discussion text b26 prints 90 μM; read-out: Present study / K1/2 PYR
T1 construct: gene AOX2; mature form, predicted mitochondrial target peptide removed, new start Met (forward primer encodes M-MVSPA), pET22b(+), E. coli BHH8 inverted membrane vesicles; apparent 29 kDa; reduced (DTT)
T1 sequence (Q41266 58-333): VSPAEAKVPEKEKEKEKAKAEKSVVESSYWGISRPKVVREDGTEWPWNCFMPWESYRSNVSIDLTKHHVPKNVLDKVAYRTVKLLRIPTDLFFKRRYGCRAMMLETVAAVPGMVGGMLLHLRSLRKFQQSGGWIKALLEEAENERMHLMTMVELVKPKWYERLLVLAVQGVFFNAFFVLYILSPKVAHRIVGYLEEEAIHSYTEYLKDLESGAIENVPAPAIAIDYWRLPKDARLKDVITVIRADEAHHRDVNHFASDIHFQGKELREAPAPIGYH
Text: O2 consumption (Clark electrode), activation of AOX in inverted membrane vesicles on GmAOX2A

[2] = target: T2, GmAOX2D (Glycine max, UniProt O03376); conditions: activator; 2.5 mM NADH, 5 mM DTT, 1 mM KCN, pH 7.0; read-out: Present study / K1/2 PYR
T2 construct: gene AOX3; mature form, predicted mitochondrial target peptide removed, new start Met (forward primer encodes M-STLPEVK), pET22b(+), E. coli BHH8 inverted membrane vesicles; apparent 31 kDa; reduced (DTT)
T2 sequence (O03376 51-326): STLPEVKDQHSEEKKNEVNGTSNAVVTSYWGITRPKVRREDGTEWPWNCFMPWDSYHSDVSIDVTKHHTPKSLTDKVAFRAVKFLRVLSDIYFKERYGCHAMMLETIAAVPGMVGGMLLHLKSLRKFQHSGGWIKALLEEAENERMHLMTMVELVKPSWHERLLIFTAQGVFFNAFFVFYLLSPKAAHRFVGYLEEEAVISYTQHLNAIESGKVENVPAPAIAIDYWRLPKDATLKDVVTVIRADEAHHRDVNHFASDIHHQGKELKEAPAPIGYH
Text: O2 consumption (Clark electrode), activation of AOX in inverted membrane vesicles on GmAOX2D

[3] = target: T3, GmAOX1 (Glycine max, UniProt Q07185); conditions: activator; 2.5 mM NADH, 5 mM DTT, 1 mM KCN, pH 7.0; discussion text b26 prints 6 μM; read-out: Present study / K1/2 PYR
T3 construct: gene AOX1; mature form, predicted mitochondrial target peptide removed, new start Met (forward primer encodes M-ESTLALS), pET22b(+), E. coli BHH8 inverted membrane vesicles; apparent 28 kDa; reduced (DTT)
T3 sequence (Q07185 42-321): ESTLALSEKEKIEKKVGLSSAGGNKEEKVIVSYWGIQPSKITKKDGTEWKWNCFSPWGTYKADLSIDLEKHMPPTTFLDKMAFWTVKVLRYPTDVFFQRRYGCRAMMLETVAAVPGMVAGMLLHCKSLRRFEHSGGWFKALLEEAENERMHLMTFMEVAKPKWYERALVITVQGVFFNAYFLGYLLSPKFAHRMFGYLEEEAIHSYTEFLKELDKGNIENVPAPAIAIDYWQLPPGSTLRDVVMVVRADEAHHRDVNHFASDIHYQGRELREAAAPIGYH
Text: O2 consumption (Clark electrode), activation of AOX in inverted membrane vesicles on GmAOX1

## CC(=O)C(=O)O [pyruvate]
[1]
  EC50: 99 µM
[2]
  EC50: 40 µM
[3]
  EC50: 4 µM
